These results are taken from ChEMBL document CHEMBL1201862, “PubChem BioAssay data set” (2004).

Experiment [1] in a line: P. falciparum Dd2 growth inhibitors, dose response, SYBR Green, cherry-picked samples (AID 1159567). The class given is functional, cell-based.
Experiment [2] has as its target T1, Ubiquitin-conjugating enzyme E2 N (Homo sapiens, UniProt P61088).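 Note: Dose-response confirmation in a TR-FRET assay detecting UBC13-driven polyubiquitin chain formation, inhibition measured.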
T1 sequence (P61088 whole entry): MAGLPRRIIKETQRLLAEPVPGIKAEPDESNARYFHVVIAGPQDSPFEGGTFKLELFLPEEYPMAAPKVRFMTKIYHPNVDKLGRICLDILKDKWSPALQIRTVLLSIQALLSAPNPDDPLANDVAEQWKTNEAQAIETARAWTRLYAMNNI
In kind it is functional.

A short description of experiment [3]: intracellular Trypanosoma cruzi inhibitors in host cells – cell-based, plate reader, cherry-pick samples, set 3, dose response (AID 651818).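 Note: compounds incubated with infected cells for about four days.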 The class given is functional.
A short description of experiment [4]: Shn3 3'UTR reporter inhibitors, dose response, cell-based, Clone20 osteoblasts, firefly luciferase, cherry-picked (AID 624132).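 Note: firefly luciferase luminescence from reporter carrying the Shn3 3'UTR in osteoblasts.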 In kind it is functional.
Experiment [5] is described as follows: control 3'UTR Renilla luciferase suppression, dose response, counter-screen for Shn3 inhibitor project, cell-based, Clone20-Shn3RL, cherry-picked (AID 624133). In kind it is functional.
Experiment [6] in a line: HepG2 cell cytotoxicity, dose response, cytotoxicity control for Shn3 inhibitor project, CellTiter-Glo, cherry-picked (AID 624134). The class given is functional, cell-based. In general terms: Cellular ATP, detected with luciferase, serves as a proxy for viable cell number.
Experiment [7] deals with Cytochrome P450 3A4 (Homo sapiens, UniProt P08684).
Sequence of Cytochrome P450 3A4 (P08684 whole entry): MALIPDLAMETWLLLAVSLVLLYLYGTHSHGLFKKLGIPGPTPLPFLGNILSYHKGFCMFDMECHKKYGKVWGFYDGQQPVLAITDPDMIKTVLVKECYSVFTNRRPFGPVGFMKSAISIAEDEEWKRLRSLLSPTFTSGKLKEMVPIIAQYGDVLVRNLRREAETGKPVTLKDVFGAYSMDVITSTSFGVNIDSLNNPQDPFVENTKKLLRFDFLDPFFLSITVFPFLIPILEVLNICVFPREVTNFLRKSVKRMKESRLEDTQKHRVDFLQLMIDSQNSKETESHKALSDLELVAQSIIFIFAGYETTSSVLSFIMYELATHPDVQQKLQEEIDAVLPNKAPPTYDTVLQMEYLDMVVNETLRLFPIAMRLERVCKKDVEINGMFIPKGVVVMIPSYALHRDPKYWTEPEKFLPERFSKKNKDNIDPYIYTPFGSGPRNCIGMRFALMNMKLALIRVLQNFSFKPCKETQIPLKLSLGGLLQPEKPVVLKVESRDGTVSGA
Experiment [8] has as its target T2, Protein skinhead-1 (Caenorhabditis elegans, UniProt P34707).
T2 sequence (P34707 whole entry): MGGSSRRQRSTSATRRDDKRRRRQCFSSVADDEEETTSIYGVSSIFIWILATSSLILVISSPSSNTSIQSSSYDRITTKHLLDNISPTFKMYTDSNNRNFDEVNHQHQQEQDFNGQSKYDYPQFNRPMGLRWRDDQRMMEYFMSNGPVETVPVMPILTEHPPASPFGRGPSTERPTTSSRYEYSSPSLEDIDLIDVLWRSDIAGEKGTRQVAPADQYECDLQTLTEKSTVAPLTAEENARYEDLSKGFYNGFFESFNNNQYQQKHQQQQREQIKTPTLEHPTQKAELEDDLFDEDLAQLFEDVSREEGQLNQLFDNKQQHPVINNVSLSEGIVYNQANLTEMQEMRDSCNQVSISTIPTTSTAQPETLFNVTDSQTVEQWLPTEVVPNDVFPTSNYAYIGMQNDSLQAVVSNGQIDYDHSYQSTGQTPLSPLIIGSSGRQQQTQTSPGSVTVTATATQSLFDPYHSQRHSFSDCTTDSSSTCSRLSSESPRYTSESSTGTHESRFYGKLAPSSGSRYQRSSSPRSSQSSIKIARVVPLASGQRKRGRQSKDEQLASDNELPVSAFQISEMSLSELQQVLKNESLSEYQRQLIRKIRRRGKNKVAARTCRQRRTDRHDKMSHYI
The class given is functional.

Experiment [9] addresses Cytochrome P450 2C9 (Homo sapiens, UniProt P11712).
Experiment [10] addresses T3, Cytochrome P450 1A2 (Homo sapiens, UniProt P05177).
T3 sequence (P05177 whole entry): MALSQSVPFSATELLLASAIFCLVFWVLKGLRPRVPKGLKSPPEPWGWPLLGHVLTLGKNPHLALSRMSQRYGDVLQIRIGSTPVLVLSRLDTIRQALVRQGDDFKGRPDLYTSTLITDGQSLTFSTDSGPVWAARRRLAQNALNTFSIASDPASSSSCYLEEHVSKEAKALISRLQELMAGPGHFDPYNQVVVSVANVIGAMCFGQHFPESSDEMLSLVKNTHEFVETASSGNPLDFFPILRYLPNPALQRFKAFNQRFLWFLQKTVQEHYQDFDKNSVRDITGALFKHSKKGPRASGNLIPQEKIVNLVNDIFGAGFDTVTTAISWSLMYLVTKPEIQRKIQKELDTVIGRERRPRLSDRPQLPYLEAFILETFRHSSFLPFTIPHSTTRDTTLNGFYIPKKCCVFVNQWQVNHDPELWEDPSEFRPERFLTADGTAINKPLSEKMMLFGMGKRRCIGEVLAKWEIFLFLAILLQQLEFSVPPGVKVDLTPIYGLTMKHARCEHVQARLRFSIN

A short description of experiment [11]: growth suppression of PTEN-null colon cells, dose response, cell-based, HCT116 PTEN knockout (AID 1047).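 Note: HCT116 colon tumor cells with PTEN knocked out; cells exposed to compound for 60 hours before readout; potency for loss of cell viability measured by luminescence.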 In kind it is functional.
The nature of experiment [12]: growth suppression of beta-catenin-knockout colon cells, dose response, cell-based, HCT116, human colon tumor (AID 1045).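 Note: HCT116 colon tumor cells with beta catenin knocked out; cells exposed to compound for 60 hours.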 The class given is functional.
Experiment [13] has as its target Paired box protein Pax-8 (Homo sapiens, UniProt Q06710). Kind of experiment: inhibitors of PAX8-driven TPO luciferase reporter, dose response, RMG-I cells, cherry-pick (AID 687027).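 Note: luciferase reporter driven by Pax8 target thyroperoxidase promoter measured by SteadyGlo luminescence.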 The class given is functional, cell-based. For orientation: In a reporter assay the amount or activity of a reporter protein is the signal.

The source made the active and inactive calls.

Sequence of Cytochrome P450 2C9 (P11712 whole entry): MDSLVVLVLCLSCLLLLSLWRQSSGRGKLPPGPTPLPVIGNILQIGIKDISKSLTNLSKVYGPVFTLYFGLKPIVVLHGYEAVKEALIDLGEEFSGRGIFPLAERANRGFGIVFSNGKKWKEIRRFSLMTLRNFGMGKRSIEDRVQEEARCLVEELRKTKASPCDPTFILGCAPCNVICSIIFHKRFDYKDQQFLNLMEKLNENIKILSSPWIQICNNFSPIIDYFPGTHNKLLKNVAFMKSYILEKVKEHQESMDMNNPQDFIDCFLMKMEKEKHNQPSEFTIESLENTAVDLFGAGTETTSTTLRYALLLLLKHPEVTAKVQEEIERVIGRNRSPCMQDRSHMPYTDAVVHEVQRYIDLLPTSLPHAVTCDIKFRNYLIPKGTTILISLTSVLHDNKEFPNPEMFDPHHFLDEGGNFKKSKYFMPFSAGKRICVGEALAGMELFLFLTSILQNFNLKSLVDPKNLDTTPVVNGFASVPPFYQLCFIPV
Sequence of Paired box protein Pax-8 (Q06710 whole entry): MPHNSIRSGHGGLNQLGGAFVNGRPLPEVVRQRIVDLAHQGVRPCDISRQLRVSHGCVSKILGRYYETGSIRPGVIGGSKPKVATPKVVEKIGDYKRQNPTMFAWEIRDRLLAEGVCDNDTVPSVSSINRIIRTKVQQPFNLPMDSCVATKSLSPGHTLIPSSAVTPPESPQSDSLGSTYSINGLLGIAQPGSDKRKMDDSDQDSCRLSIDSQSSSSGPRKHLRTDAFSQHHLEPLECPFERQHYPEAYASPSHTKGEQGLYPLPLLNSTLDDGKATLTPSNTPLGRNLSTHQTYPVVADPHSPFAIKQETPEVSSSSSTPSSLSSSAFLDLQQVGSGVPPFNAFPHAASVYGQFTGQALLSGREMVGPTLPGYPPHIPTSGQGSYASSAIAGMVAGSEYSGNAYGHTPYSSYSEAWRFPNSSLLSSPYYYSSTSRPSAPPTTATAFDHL

Take `Cc1ccccc1S(=O)(=O)N1[C@H](CO)[C@@H](c2ccc(C#CC3CCCCC3)cc2)[C@@H]1C#N`: the half-maximal activity concentration (AC50) (as a rule, the midpoint of the concentration-response curve, whichever way the signal moves) in [1] was 4.12 µM (active).

As for `O=C(C1=C[C@@H](c2coc3ccccc3c2=O)C[C@@H](OCc2ccc(CO)cc2)O1)N1CCN(Cc2ccc3c(c2)OCO3)CC1`, the IC50 (in general, the concentration at which inhibition is half-maximal) in experiment [2] is > 20 µM (inactive).

Consider `C[C@H](CO)N1C[C@H](C)[C@@H](CN(C)Cc2ccc(C(=O)Nc3ccccc3N)cc2)Oc2c(NC(=O)Nc3ccc(F)cc3)cccc2C1=O`, for which the AC50 in [3] was 4.17 µM (active).

Turning to `NC1=NC[C@H](c2ccccc2)N1CCCCC1CCCCC1`, in experiment [2], the IC50 was > 20 µM (inactive). Further, the AC50 in experiment [4] was 4.23 µM (active); in [5], 3.11 µM (active); in experiment [6], 43.1 µM (active).

In the case of `C[C@H](CO)N1C[C@H](C)[C@H](CN(C)Cc2ccc(C(=O)Nc3ccccc3N)cc2)Oc2ccc(NS(=O)(=O)c3cccs3)cc2CC1=O`, the AC50 in experiment [3] was 4.59 µM (active).

Turning to `Oc1ccc(C[C@@H]2CNCCN2CCCCC2CCCCC2)cc1`, the IC50 in experiment [2] was > 20 µM (inactive).

Regarding `Cn1c(-c2ccc(CN3CCCCC3)o2)nc2ccccc21`, the AC50 in experiment [7] is 28.2 µM (inconclusive); in experiment [9] it was 2 µM (inconclusive); in experiment [10], 12.6 µM (inconclusive). In addition, the IC50 in experiment [8] was > 100 µM (inactive).

As to `Cc1ccc(/C=C/C(=O)c2ccccc2)cc1`, the EC50 (commonly the concentration that produces a half-maximal response) in experiment [11] is 22.6 µM (active); in [12], 20.1 µM (active).

Consider `C[C@@H]1CCCCO[C@H](CN(C)Cc2ccc(Cl)c(Cl)c2)[C@@H](C)CN([C@H](C)CO)C(=O)c2cc(NS(=O)(=O)c3ccc(Cl)cc3)ccc2O1`, for which, in experiment [3], the AC50 is 4.22 µM (active).

Consider `O=C(Oc1ccccc1/C=C\C(=O)c1cc2ccccc2o1)c1cccc(F)c1`, for which the EC50 in experiment [11] and in [12] was 8.35 µM (active) throughout.

As to `COc1ccc(CN2C[C@@H](C)[C@H](OC)CN(C)C(=O)c3cc(NC(=O)c4nc5ccccc5s4)ccc3OC[C@H]2C)cc1`, the AC50 in experiment [1] is 4.08 µM (active).

For the compound `C[C@H](CO)N1C[C@H](C)[C@H](CN(C)Cc2ccc(C(=O)Nc3ccccc3N)cc2)Oc2ccc(NC(=O)Nc3ccc(F)cc3)cc2CC1=O`, in experiment [3], the AC50 is 2.26 µM (active).

In the case of `C[C@H](CO)N1C[C@H](C)[C@@H](CN(C)Cc2ccc(-c3ccccc3)cc2)Oc2c(NC(=O)NC3CCCCC3)cccc2C1=O`, the AC50 in experiment [3] is 4.23 µM (active).

On to `C[C@@H]1CCCCO[C@@H](CN(C)Cc2ccccc2)[C@@H](C)CN([C@H](C)CO)C(=O)c2cc(NC(=O)Nc3ccc(C(F)(F)F)cc3)ccc2O1`, for which the half-maximal activity concentration (AC50) in [3] is 1.64 µM (active); in experiment [13], 10.1 µM (active).

With `O=C(/C=C/c1ccc(-c2ccccc2[N+](=O)[O-])o1)c1ccc(F)cc1`, the EC50 was 28.8 µM (active) in experiment [11] and 35.7 µM (active) in [12].

On to `N#C[C@H]1[C@@H](c2ccc(C#CC3CC3)cc2)[C@H](CO)N1S(=O)(=O)c1ccccc1`, for which the AC50 in experiment [1] is 4.18 µM (active).

As for `C[C@H](CO)N1C[C@H](C)[C@H](CN(C)Cc2ccc(-c3ccccc3)cc2)Oc2ccc(NC(=O)Nc3ccc(C(F)(F)F)cc3)cc2C1=O`, in [3], the AC50 was 5.37 µM (active).

As to `CC(C)C[C@@H]1CN=C(N)N1C[C@@H]1CCCN1C[C@@H](C(C)C)N1C[C@@H](Cc2ccccc2)N(CCCC2CCCC2)C1=N`, in [2], the IC50 was > 20 µM (inactive).

On to `O=C(CCCCCCC(=O)Nc1ccccc1O)N/N=C/c1ccc(OCc2ccccc2)cc1O`, for which the AC50 in [3] was 1.16 µM (active).

With `C[C@@H]1CN([C@H](C)CO)C(=O)c2cccc(NC(=O)Nc3ccc(C(F)(F)F)cc3)c2O[C@H]1CN(C)C(=O)Nc1ccc(C(F)(F)F)cc1`, the AC50 in [3] was 6.75 µM (active).

Turning to `COC(=O)[C@@]12CCCCN1[C@H](c1ccc(-c3cc(C(C)=O)cs3)c(OC)c1)[C@H]1C(=O)N(C)C(=O)[C@H]12`, the IC50 in experiment [2] is > 20 µM (inactive).

Turning to `C[C@@H]1CN([C@H](C)CO)C(=O)Cc2cc(NS(=O)(=O)c3ccc(Cl)cc3)ccc2O[C@H]1CN(C)Cc1ccc(C(=O)Nc2ccccc2N)cc1`, the AC50 in experiment [3] is 4.53 µM (active).

In the case of `CCCNC(=O)N1CC2(CCN(C(=O)CN(C)C)CC2)c2c(n(C)c3cc(OC)ccc23)[C@H]1CO`, the AC50 in experiment [1] was 4.6 µM (active).

`OC[C@@H]1Nc2ccc(C#Cc3cccc(F)c3)cc2[C@@H]2NCC[C@H]12`: the AC50 in [1] is 2.83 µM (active).

Turning to `COc1ccc(CN(C)C[C@@H]2Oc3ccc(NS(=O)(=O)c4ccc(Cl)cc4)cc3CC(=O)N([C@H](C)CO)C[C@H]2C)cc1`, the AC50 in experiment [3] was 2.61 µM (active).

Regarding `C[C@@H]1CN([C@@H](C)CO)C(=O)c2c(c3ccccc3n2C)-c2ccccc2CO[C@H]1CN(C)S(=O)(=O)c1ccc(C(F)(F)F)cc1`, the AC50 in experiment [1] is 3.02 µM (active).
